Assay in all cases: drug sensitivity score (DSS) from 5-dose viability curve (DSS (area-based score, 0 = no response)); higher = more sensitive (stronger viability inhibition); extreme values may be limits of the assay
For experiment [1], the system named is MDCK wild-type - doxycycline. The note with it: doxycycline: none; 72 h. The method, boiled down:
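An oncology library of 528 drugs was pre-spotted at five doses (1-10,000 nM) in 384-well plates, and parental MDCK cells without doxycycline were added at 2000 cells/well. The plates were kept at 37 °C for 72 h. Drug sensitivity scores were obtained by fitting dose-response curves in the Breeze pipeline to CellTiter-Glo viability readings scaled per plate between vehicle and positive controls.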

The test system of experiment [2] is MDCK wild-type + doxycycline. The following applies: doxycycline: 10 ng/mL; 72 h. The procedure, abridged: (§1)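 After 72 h at 37 °C on 384-well plates pre-spotted with 528 oncology drugs at five doses (1-10,000 nM), parental and doxycycline-inducible MDCK cells were assessed; both lines had been given 10 ng/mL doxycycline in the medium before seeding at 2000 cells/well. Viability was taken from CellTiter-Glo luminescence scaled per plate to vehicle and positive controls, and drug sensitivity scores were derived from dose-response fits in the Breeze pipeline.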

Experiment [3] concerns MDCK p60AmotL2-inducible + doxycycline (p60AmotL2 expressing). The note with it: doxycycline: 10 ng/mL; 72 h. The procedure, abridged: as §1

On to `CO[C@H]1C(=O)[C@]2(C)[C@@H](OC)C[C@H]3OC[C@@]3(OC(C)=O)[C@H]2[C@H](OC(=O)c2ccccc2)[C@]2(O)C[C@H](OC(=O)[C@H](O)[C@@H](NC(=O)OC(C)(C)C)c3ccccc3)C(C)=C1C2(C)C` [Cabazitaxel], for which the figures for the drug sensitivity score in experiment [1], in experiment [2] and in experiment [3] were 33.8, 37.7 and 38, respectively.
For `COc1cc2nccc(Oc3ccc(NC(=O)C4(C(=O)Nc5ccc(F)cc5)CC4)cc3)c2cc1OC` [Cabozantinib], in that order: 0, 0 and 0.
For `C=CC(=O)Nc1cc2c(Nc3ccc(F)c(Cl)c3)ncnc2cc1OCCCN1CCOCC1` [Canertinib], in that order: 7.9, 9.6 and 15.2.
On the same counts, the results for `CCCCCOC(=O)Nc1nc(=O)n([C@@H]2O[C@H](C)[C@@H](O)[C@H]2O)cc1F` [Capecitabine] are 5.1, 7 and 7.1.
For `CNC(=O)c1ccc(-c2cnc3ncc(Cc4ccc5ncccc5c4)n3n2)cc1F` [Capmatinib], the drug sensitivity score in experiment [1], in experiment [2] and in experiment [3] was 0 in each case.
With `O=C(O)C1(C(=O)O)CCC1.[NH2-].[NH2-].[Pt+2]` [Carboplatin], the figures for the drug sensitivity score in experiment [1], in experiment [2] and in experiment [3] were 3.6, 4.4 and 5, respectively.
As for `CC(C)C[C@H](NC(=O)[C@H](CCc1ccccc1)NC(=O)CN1CCOCC1)C(=O)N[C@@H](Cc1ccccc1)C(=O)N[C@@H](CC(C)C)C(=O)[C@@]1(C)CO1` [Carfilzomib], the drug sensitivity score came to 21.2 in experiment [1], 24.6 in experiment [2] and 25.7 in experiment [3].
For `COc1cc2c(Oc3ccc4[nH]c(C)cc4c3F)ncnc2cc1OCCCN1CCCC1` [Cediranib], the drug sensitivity score in experiment [1] is 0; in experiment [2], 0; in experiment [3], 0.3.
Take `Cc1ccc(-c2cc(C(F)(F)F)nn2-c2ccc(S(N)(=O)=O)cc2)cc1` [Celecoxib]: the drug sensitivity score in experiment [1], in experiment [2] and in experiment [3] was 0 throughout.
In the case of `CCS(=O)(=O)N1CCN(c2ccc(Nc3ncc(C(N)=O)c(NC4CC4)n3)cc2)CC1` [Cerdulatinib], the drug sensitivity score in experiment [1] worked out at 0.2; in experiment [2], 0; in experiment [3] it was 0.2.
With `Cc1cc(Nc2ncc(Cl)c(Nc3ccccc3S(=O)(=O)C(C)C)n2)c(OC(C)C)cc1C1CCNCC1` [Ceritinib], the drug sensitivity score worked out at 0 in experiment [1], 0.6 in experiment [2] and 0 in experiment [3].
As to `CCN(CC)CCCC(C)Nc1ccnc2cc(Cl)ccc12` (stereo not given) [Chloroquine], the drug sensitivity score turned out to be 5.1 in experiment [1], 4.5 in experiment [2] and 5.2 in experiment [3].
On the same counts, the results for `CC(C)[C@H]1C(=O)N[C@@H](CCCNC(=N)N)C(=O)NCC(=O)N[C@@H](CC(=O)O)C(=O)N[C@H](Cc2ccccc2)C(=O)N1C` [Cilengitide] are 0.2, 0 and 3.8.
On the same counts, the results for `N.N.[Cl][Pt][Cl]` [Cisplatin] are 5.7, 12.2 and 13.5.
For `Nc1nc(Cl)nc2c1ncn2[C@H]1C[C@H](O)[C@@H](CO)O1` [Cladribine], in that order: 1.2, 2.3 and 2.3.
For `Nc1nc(Cl)nc2c1ncn2[C@@H]1O[C@H](CO)[C@@H](O)[C@@H]1F` [Clofarabine], the drug sensitivity score in experiment [1] was found to be 12.1; in experiment [2] it was 12.9; in experiment [3], 13.8.
For `CCN(CC)CCOc1ccc(C(=C(Cl)c2ccccc2)c2ccccc2)cc1` [Clomifene], in that order: 4.4, 4.7 and 5.3.
On the same counts, the results for `O=C(c1ccc(F)c(F)c1Nc1ccc(I)cc1F)N1CC(O)([C@@H]2CCCCN2)C1` [Cobimetinib] are 3.9, 3.4 and 9.8.
For `COc1c(OCCCN2CCOCC2)ccc2c1N=C(NC(=O)c1cnc(N)nc1)N1CCN=C21` [Copanlisib], in that order: 5.8, 6.2 and 10.9.
`CC1(COc2ccc3c(c2)ncn3-c2ccc3cccc(N4CCC(N)CC4)c3n2)COC1` [Crenolanib]: the drug sensitivity score in experiment [1] was 5.4; in experiment [2], 8.1; in experiment [3] it was 6.5.
On to `C[C@@H](Oc1cc(-c2cnn(C3CCNCC3)c2)cnc1N)c1c(Cl)ccc(F)c1Cl` [Crizotinib], for which the drug sensitivity score in experiment [1], in experiment [2] and in experiment [3] was 0 each time.
Regarding `Nc1ccn([C@@H]2O[C@H](CO)[C@@H](O)[C@@H]2O)c(=O)n1` [Cytarabine], the drug sensitivity score in experiment [1] turned out to be 1.8; in experiment [2], 2.3; in experiment [3] it was 4.
For `CC(C)(C)c1nc(-c2cccc(NS(=O)(=O)c3c(F)cccc3F)c2F)c(-c2ccnc(N)n2)s1` [Dabrafenib], in that order: 0, 0 and 0.
Take `COc1cc2ncnc(Nc3ccc(F)c(Cl)c3)c2cc1NC(=O)/C=C/CN1CCCCC1` [Dacomitinib]: the drug sensitivity score is 5.3 in experiment [1], 8.4 in experiment [2] and 19.3 in experiment [3].
On the same counts, the results for `Cc1c2oc3c(C)ccc(C(=O)N[C@@H]4C(=O)N[C@H](C(C)C)C(=O)N5CCC[C@H]5C(=O)N(C)CC(=O)N(C)[C@@H](C(C)C)C(=O)O[C@@H]4C)c3nc-2c(C(=O)N[C@@H]2C(=O)N[C@H](C(C)C)C(=O)N3CCC[C@H]3C(=O)N(C)CC(=O)N(C)[C@@H](C(C)C)C(=O)O[C@@H]2C)c(N)c1=O` [Dactinomycin] are 25.2, 27.6 and 32.9.
In the case of `Cn1c(=O)n(-c2ccc(C(C)(C)C#N)cc2)c2c3cc(-c4cnc5ccccc5c4)ccc3ncc21` [Dactolisib], the drug sensitivity score came out at 9.2 in experiment [1], 10.9 in experiment [2] and 17.7 in experiment [3].
On the same counts, the results for `CO[C@@H](C(=O)N1Cc2[nH]nc(NC(=O)c3ccc(N4CCN(C)CC4)cc3)c2C1)c1ccccc1` [Danusertib] are 4.4, 5.6 and 8.4.
For `O=C(/C=C/c1cccnc1)NCCCCC1CCN(C(=O)c2ccccc2)CC1` [Daporinad], in that order: 29.3, 29.1 and 29.3.
For `CCN(CC)CCN(Cc1ccc(-c2ccc(C(F)(F)F)cc2)cc1)C(=O)Cn1c(SCc2ccc(F)cc2)nc(=O)c2c1CCC2` [Darapladib], in that order: 0, 0 and 0.
For `Cc1nc(Nc2ncc(C(=O)Nc3c(C)cccc3Cl)s2)cc(N2CCN(CCO)CC2)n1` [Dasatinib], the drug sensitivity score amounted to 4.9 in experiment [1], 1.8 in experiment [2] and 13.7 in experiment [3].
With `COc1cccc2c1C(=O)c1c(O)c3c(c(O)c1C2=O)C[C@@](O)(C(C)=O)C[C@@H]3O[C@H]1C[C@H](N)[C@H](O)[C@H](C)O1` [Daunorubicin], the drug sensitivity score in experiment [1] was 9.5; in experiment [2], 10.3; in experiment [3], 11.6.
For `CC[C@@](C)(Nc1ccnc(-c2c[nH]c3ncccc23)n1)C(=O)NCC(F)(F)F` [Decernotinib], in that order: 0, 0 and 0.
On the same counts, the results for `Nc1ncn([C@H]2C[C@H](O)[C@@H](CO)O2)c(=O)n1` [Decitabine] are 1.1, 0 and 0.6.
On the same counts, the results for `CC(=O)N(O)CCCCCNC(=O)CCC(=O)N(O)CCCCCNC(=O)CCC(=O)N(O)CCCCCN` [Deferoxamine] are 3.3, 3.9 and 5.1.
For `C[C@@H]1C[C@H]2[C@@H]3CCC4=CC(=O)C=C[C@]4(C)[C@@]3(F)[C@@H](O)C[C@]2(C)[C@@]1(O)C(=O)CO` [Dexamethasone], the drug sensitivity score in experiment [1], in experiment [2] and in experiment [3] was 0 in each case.
